The first test has as its system dry eye (corneal staining, tear breakup time). Description: Lacrimal gland inflammation-induced dry eye in rabbits. The test is classed as in vivo. As to conditions: 1 × 10^−2 percent concentration, topical ocular BID, rabbit ConA dry eye. An excerpt:
A more detailed description of the assay used herein may be found in Naglehout, T J et al. 2005, “Preservation of Tear Film Integrity and Inhibition of Corneal Injury by Dexamethasone in a Rabbit Model of Lacrimal Gland Inflammation-Induced Dry Eye,”J. Ocular Pharm. Ther., 21:2. 139-148, the disclosure of which is hereby incorporated by reference as if written herein in its entirety. Rabbits (n=4/group) were randomized into treatment groups and dosed topically BID with maxidex vehicle or test drug beginning one day prior to initiation of dry eye. Each rabbit received bilateral lacrimal gland injections of saline or ConA (300 μg/30 μl) and topical ocular dosing was continued BID throughout the study. Desiccation was initiated 1-2 hours following lacrimal gland injection by placing conscious rabbits in the environmental chamber (10-15% humidity/72° F.). Following 72 consecutive hours of exposure to this dry environment, the animals were anesthetized and sutures were placed in each upper and lower eyelid and lifted to form a corneal/conjunctival cup. Methylene blue dye (1 mL, 1% in dH2O) was added to the cup for three minutes and the excess removed by washing with 200 mL BSS®. The contralateral eye was then stained using the same procedure. Rabbits were euthanized immediately following the staining procedure and the eyes were excised. The corneas were isolated with a trephine and the 9.5-mm punch of the cornea was placed in 2 mL acetone/saturated sodium sulfate (7:3, vol./vol.). Absorbance of the extracted dye was determined at 660 nm. TBUT was quantified in a separate group of treated animals. TBUT was determined by instilling 5 μL sodium fluorescein into the cul de sac and manually blinking the lids to distribute the fluorescein within the tear film. Under slit lamp observation, the eye was held open and the time whereby one or more black spots or streaks appeared in the precorneal tear film was recorded. The rabbits were euthanized 3 days following ConA inj ection.
For `COc1ccc2c(Nc3c(Cl)cncc3Cl)cc(OCCN(C)C)nc2c1OC1CCCC1` [Example 25, 8-(Cyclopentyloxy)-N-(3,5-dichloropyridin-4-yl)-2-(2-(dimethylamino)ethoxy)-7-methoxyquinolin-4-amine], the “Activity at Percent Concentration Tested” value is given as “Inactive”.

The test is the same for the next values; noted with them: 1 × 10^−4 percent concentration, topical ocular BID, rabbit ConA dry eye.
Turning to `COc1ccc2c(Nc3c(Cl)cncc3Cl)cc(OCCN(C)C)nc2c1OC1CCCC1` [Example 25, 8-(Cyclopentyloxy)-N-(3,5-dichloropyridin-4-yl)-2-(2-(dimethylamino)ethoxy)-7-methoxyquinolin-4-amine], the “Activity at Percent Concentration Tested” value is “Inactive”.

Staying with this test, now noted: 1 × 10^−6 percent concentration, topical ocular BID, rabbit ConA dry eye.
`COc1ccc2c(Nc3c(Cl)cncc3Cl)cc(OCCN(C)C)nc2c1OC1CCCC1` [Example 25, 8-(Cyclopentyloxy)-N-(3,5-dichloropyridin-4-yl)-2-(2-(dimethylamino)ethoxy)-7-methoxyquinolin-4-amine]: the “Activity at Percent Concentration Tested” value was “Inactive”.

The target of the next test is T1, PDE4B (Homo sapiens, UniProt Q07343).
T1 construct: hexahistidine (His6) (N); made in house
T1 sequence (Q07343 330-659 limits assumed, species assumed): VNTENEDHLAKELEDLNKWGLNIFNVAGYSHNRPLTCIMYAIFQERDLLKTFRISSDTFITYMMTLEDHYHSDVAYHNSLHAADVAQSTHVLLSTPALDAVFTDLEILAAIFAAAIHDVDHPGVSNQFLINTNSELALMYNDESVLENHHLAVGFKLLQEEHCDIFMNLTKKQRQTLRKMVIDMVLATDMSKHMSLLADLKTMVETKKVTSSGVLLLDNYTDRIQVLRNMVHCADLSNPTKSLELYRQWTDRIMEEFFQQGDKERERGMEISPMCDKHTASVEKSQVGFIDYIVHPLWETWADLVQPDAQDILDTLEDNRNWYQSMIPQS
Description: coupled PDE/AK bioluminescent assay. Conditions: catalytic domain of PDE4B. It is filed as biochemical. An excerpt:
Phosphodiesterases regulate the activity of the second messenger cyclic adenosine monophosphate (cAMP) by hydrolyzing cAMP to adenosine monophosphate (AMP). We developed a novel coupled PDE/AK bioluminescent high-throughput assay to measure the activity of phosphodiesterases. In the PDE/AK assay, the AMP produced from the hydrolysis of cAMP by phosphodiesterase is converted to adenosine diphosphate (ADP) by the phosphotransferase activity of adenylate kinase (also known as ADK or myokinase). Adenylate kinase will catalyze the conversion of 1 mole of AMP and 1 mole of ATP into 2 moles of ADP. Thus the conversion of AMP to ADP will result in the subsequent loss of ATP. The decrease in ATP concentration can be monitored as light output using luciferase in a reaction that requires ATP to produce light. The PDE/AK assay uses luciferase, which catalyzes the production of light from ATP present in the reaction mix. The amount of emitted light is inversely proportional to the level of AMP present in the reaction. Test compounds are incubated with the phosphodiesterases and phosphodiesterase inhibitors will decrease the rate of cAMP hydrolysis and decrease the subsequent production of AMP. Thus phosphodiesterase inhibitors will decrease the conversion of ATP to ADP and result in the greatest emission of light.
Compounds may be screened for functional potency in in vitro biochemical assays for their ability to inhibit the activity of phosphodiesterase (PDE) enzymes. A novel coupled PDE/AK assay was utilized to measure the inhibitory activity of compounds on PDE isoforms. The catalytic domain of PDE4B was fused to an amino-terminus hex-histidine affinity tag and purified. PDE4B enzyme was incubated with compounds for 10 minutes. Cyclic AMP substrate, ATP and adenylate kinase were then added to the PDE enzyme mix and incubated for 45 minutes at room temperature. A commercial ATP detection assay, Perkin Elmer's easyLite ATP detection reagent, was then added to measure the relative amount of ATP present in the reaction. After 10 minute incubation, the luminescent signal was quantitated with either the Perkin Elmer Viewlux or Molecular Devices Acquest or Analyst. Roflumilast and Rolipram are the positive controls used in the assay.
The PDE/AK assay can be performed with any cAMP dependent phosphodiesterase, and can be performed in 96-, 384-, or 1536-well plates. […] Specifically, the use of radioactive substrates in a phosphodiesterase activity assay requires special protocols for handling and waste disposal, and reduced throughput. Modified substrates add the additional complexity of potentially altering the binding to the phosphodiesterase catalytic site. Fluorescently modified substrates may cause fluorescence artifacts that may interfere in the interpretation of assay results. The use of beads that selectively bind to either the cAMP or AMP may cause an additional complexity in reagent handling. The use of antibodies that selectively bind to either cAMP or AMP can be extremely costly with a relatively small signal to noise ratio. Therefore, the novel PDE/AK assay represents a simple, cost-effective alternative to known methods.
`COc1ccc2c(Cc3c(Cl)cncc3Cl)nccc2c1OC1CCCC1` [Example 9, 5-(Cyclopentyloxy)-1-[(3,5-dichloropyridin-4-yl)methyl]-6-methoxyisoquinoline]: the IC50 (commonly the point on the concentration scale where inhibition reaches its midpoint) was more than 1000 nM.

The compound `COc1cc(Nc2c(Cl)cncc2Cl)c2ccc(OC)c(OC3CCCC3)c2n1` [Example 19, 8-(Cyclopentyloxy)-N-(3,5-dichloropyridin-4-yl)-2,7-dimethoxyquinolin-4-amine] showed an IC50 not above 1000 nM. In turn, `COc1ccc2c(Nc3c(Cl)cncc3Cl)c(Cl)c(OCCN(C)C)nc2c1OC1CCCC1` [Example 26, 3-Chloro-8-(cyclopentyloxy)-N-(3,5-dichloropyridin-4-yl)-2-(2-(dimethylamino)ethoxy)-7-methoxyquinolin-4-amine] returned an IC50 not above 1000 nM. In turn, `COc1ccc2c(c1OC1CCCC1)OCCC2Nc1c(Cl)cncc1Cl` (stereo not shown) [Example 17, 3,5-Dichloro-N-(8-(cyclopentyloxy)-7-methoxychroman-4-yl)pyridin-4-amine] returned an IC50 of more than 1000 nM. Consider `COc1ccc2c(Nc3c(Cl)cncc3Cl)cc(OCCCN(C)C)nc2c1OC1CCCC1` [Example 29, 8-(Cyclopentyloxy)-N-(3,5-dichloropyridin-4-yl)-2-(3-(dimethylamino)propoxy)-7-methoxyquinolin-4-amine], for which the IC50 is not above 1000 nM. On the same count and under the same terms, to `COc1ccc2c(Nc3c(Br)cncc3Br)ccnc2c1OC1CCCC1` [Example 16, 8-(Cyclopentyloxy)-N-(3,5-dibromopyridin-4-yl)-7-methoxyquinolin-4-amine] belongs more than 1000 nM.

`COc1ccc2c(Nc3c(Cl)cncc3Cl)cc(OCCN(C)C)nc2c1OC1CCCC1` [Example 25, 8-(Cyclopentyloxy)-N-(3,5-dichloropyridin-4-yl)-2-(2-(dimethylamino)ethoxy)-7-methoxyquinolin-4-amine]: the IC50 is not above 1000 nM.

In the case of `COc1ccc2c(Nc3c(C)cncc3C)ccnc2c1OC1CCCC1` [Example 15, 8-(Cyclopentyloxy)-N-(3,5-dimethylpyridin-4-yl)-7-methoxyquinolin-4-amine], the IC50 is more than 1000 nM. Take `COc1ccc2c(Nc3c(Cl)cccc3Cl)nccc2c1OC1CCCC1` [Example 7, 5-(Cyclopentyloxy)-N-(2,6-dichlorophenyl)-6-methoxyisoquinolin-1-amine]: the IC50 is more than 1000 nM. For the compound `COc1ccc2c(Nc3c(Cl)cncc3Cl)cc(N(C)C)nc2c1OC1CCCC1` [Example 21, 8-(Cyclopentyloxy)-N4-(3,5-dichloropyridin-4-yl)-7-methoxy-N2,N2-dimethylquinoline-2,4-diamine], the half-maximal inhibitory concentration (IC50) is not above 1000 nM. On the same count and under the same terms, to `COc1ccc2c(Nc3c(Cl)cncc3Cl)ccnc2c1OC1CCCC1` [Example 5, 8-(Cyclopentyloxy)-N-(3,5-dichloropyridin-4-yl)-7-methoxyquinolin-4-amine] belongs more than 1000 nM. As for `COc1ccc2c(Nc3c(Cl)cccc3Cl)ccnc2c1OC` [Example 11, N-(2,6-Dichlorophenyl)-7,8-dimethoxyquinolin-4-amine], the 50% inhibitory concentration (IC50) is more than 1000 nM.

Take `COc1ccc2c(Nc3c(Cl)cccc3Cl)ccnc2c1OC1CCCC1` [Example 4, 8-(Cyclopentyloxy)-N-(2,6-dichlorophenyl)-7-methoxyquinolin-4-amine]: the IC50 is more than 1000 nM. Regarding `COc1ccc2c(Nc3c(Cl)cncc3Cl)cc(OCCO)nc2c1OC1CCCC1` [Example 27, 2-(8-(Cyclopentyloxy)-4-(3,5-dichloropyridin-4-ylamino)-7-methoxyquinolin-2-yloxy)ethanol], the IC50 is not above 1000 nM.

The compound `COc1ccc2c(Cc3c(Cl)cncc3Cl)ncnc2c1OC1CCCC1` [Example 3, 8-(Cyclopentyloxy)-4-[(3,5-dichloropyridin-4-yl)methyl]-7-methoxyquinazoline] came in with an IC50 not above 1000 nM. Same read-out and setting: to `COc1ccc2c(Nc3c(Cl)c(Cl)nc(Cl)c3Cl)ccnc2c1OC1CCCC1` [Example 14, 8-(Cyclopentyloxy)-7-methoxy-N-(perchloropyridin-4-yl)quinolin-4-amine] belongs more than 1000 nM; to `CCOc1cc(Nc2c(Cl)cncc2Cl)c2ccc(OC)c(OC3CCCC3)c2n1` [Example 20, 8-(Cyclopentyloxy)-N-(3,5-dichloropyridin-4-yl)-2-ethoxy-7-methoxyquinolin-4-amine], not above 1000 nM; to `COc1ccc2c(Nc3c(Cl)cncc3Cl)coc2c1OC1CCCC1` [Example 10, 3,5-Dichloro-N-[7-(cyclopentyloxy)-6-methoxybenzofuran-3-yl]pyridine-4-amine], more than 1000 nM.

As for `COc1ccc2c(Nc3c(Cl)cccc3Cl)ncnc2c1OC1CCCC1` [Example 1, 8-(Cyclopentyloxy)-N-(2,6-dichlorophenyl)-7-methoxyquinazolin-4-amine], the IC50 is more than 1000 nM.

`COc1ccc2c(Nc3c(Cl)cnc(Cl)c3Cl)ccnc2c1OC1CCCC1` [Example 13, 8-(Cyclopentyloxy)-7-methoxy-N-(2,3,5-trichloropyridin-4-yl)quinolin-4-amine] returned an IC50 of more than 1000 nM. Still for that read-out and setting: to `COc1ccc2c(Nc3c(Cl)cncc3Cl)cc(Cl)nc2c1OC1CCCC1` [Example 24, 2-Chloro-8-(cyclopentyloxy)-N-(3,5-dichloropyridin-4-yl)-7-methoxyquinolin-4-amine] belongs not above 1000 nM; to `COc1ccc2c(NCc3c(Cl)cccc3Cl)coc2c1OC1CCCC1` [Example 12, 7-(Cyclopentyloxy)-N-(2,6-dichlorobenzyl)-6-methoxybenzofuran-3-amine], more than 1000 nM. For the compound `COc1ccc2c(Nc3c(Cl)cncc3Cl)nccc2c1OC1CCCC1` [Example 8], the IC50 was not above 1000 nM. `COc1ccc2c(Nc3c(Cl)cncc3Cl)ncnc2c1OC1CCCC1` [Example 2, 8-(Cyclopentyloxy)-N-(3,5-dichloropyridin-4-yl)-7-methoxyquinazolin-4-amine] yielded an IC50 of more than 1000 nM. In the case of `CNc1cc(Nc2c(Cl)cncc2Cl)c2ccc(OC)c(OC3CCCC3)c2n1` [Example 22, 8-(Cyclopentyloxy)-N4-(3,5-dichloropyridin-4-yl)-7-methoxy-N2-methylquinoline-2,4-diamine], the IC50 is not above 1000 nM. On the same count and under the same terms, to `COc1ccc2c(Cc3c(Cl)cncc3Cl)ccnc2c1OC1CCCC1` [Example 6, 8-(Cyclopentyloxy)-4-[(3,5-dichloropyridin-4-yl)methyl]-7-methoxyquinoline] belongs more than 1000 nM; to `COc1ccc2c(C(=O)Nc3c(Cl)cncc3Cl)coc2c1OC1CCCC1` [Example 18, 7-(Cyclopentyloxy)-N-(3,5-dichloropyridin-4-yl)-6-methoxybenzofuran-3-carboxamide], more than 1000 nM. The compound `COc1ccc2c(Nc3c(Cl)cncc3Cl)cc(OCCN3CCOCC3)nc2c1OC1CCCC1` [Example 28, 8-(Cyclopentyloxy)-N-(3,5-dichloropyridin-4-yl)-7-methoxy-2-(2-morpholinoethoxy)quinolin-4-amine] registered an IC50 not above 1000 nM.

Source of the values: US20090291950A1, “BICYCLIC HETEROARYL INHIBITORS OF PDE4” (KALYPSYS, INC., priority 2006, published 2009).
